Measurements taken from ChEMBL document CHEMBL4610032, “Inhibitory effects of triarylpyrazole derivatives on LPS-induced nitric oxide and PGE2 productions in murine RAW 264.7 macrophages” (Bioorg Med Chem Lett, 2020).
One block for each compound: values may come before it.

Experiments:
[1] = tested on: RAW264.7; test: Antiinflammatory activity against murine RAW264.7 cells assessed as inhibition of LPS-induced NO production at 10 uM preincubated for 1 hr followed by LPS stimulation and measured after 24 hrs by Griess assay relative to control; format: functional; details: Mus musculus
[2] = Cytotoxicity against murine RAW264.7 cells assessed as cell viability at 10 uM relative to control; format: cell-based; details: mouse, read-out: Activity
[3] = tested on: RAW264.7; test: Antiinflammatory activity against murine RAW264.7 cells assessed as inhibition of LPS-induced PGE2 production at 10 uM preincubated for 1 hr followed by LPS stimulation and measured after 24 hrs by EIA relative to control; format: functional; details: Mus musculus
[4] = tested on: RAW264.7; test: Antiinflammatory activity against murine RAW264.7 cells assessed as inhibition of LPS-induced PGE2 production preincubated for 1 hr followed by LPS stimulation and measured after 24 hrs by EIA; format: functional, cell-based; details: Mus musculus
[5] = tested on: RAW264.7; test: Antiinflammatory activity against murine RAW264.7 cells assessed as inhibition of LPS-induced NO production at 40 uM preincubated for 1 hr followed by LPS stimulation and measured after 24 hrs by Griess assay relative to control; format: functional; details: Mus musculus
[6] = tested on: RAW264.7; test: Antiinflammatory activity against murine RAW264.7 cells assessed as inhibition of LPS-induced PGE2 production at 10 nM preincubated for 1 hr followed by LPS stimulation and measured after 24 hrs by EIA relative to control; format: functional; details: Mus musculus
[7] = tested on: RAW264.7; test: Antiinflammatory activity against murine RAW264.7 cells assessed as downregulation of LPS-stimulated COX2 protein expression pretreated for 1 hr followed by LPS addition and measured after 24 hrs by Western blot analysis; format: functional, cell-based; details: Mus musculus
[8] = tested on: RAW264.7; test: Antiinflammatory activity against murine RAW264.7 cells assessed as reduction in LPS-stimulated COX2 mRNA expression pretreated for 1 hr followed by LPS addition and measured after 4 hrs by qRT-PCR analysis; format: functional, cell-based; details: Mus musculus

IC50 [4]: 4.51 µM
Compound: COc1cccc(-c2nn(-c3ccccc3)cc2-c2ccnc(NCCNC(=O)Nc3ccc(Cl)c(Cl)c3)c2)c1
inhibition at 10 µM [1]: 22% | viability at 10 µM [2]: 129% | inhibition at 10 µM [3]: 76.1%

Compound: COc1cccc(-c2nn(-c3ccccc3)cc2-c2ccnc(NCCCNC(=O)Nc3ccccc3)c2)c1
inhibition at 10 µM [1]: 22.2% | viability at 10 µM [2]: 143% | inhibition at 10 µM [3]: 56.3%

Compound: O=C(NCCCNc1cc(-c2cn(-c3ccccc3)nc2-c2cccc(O)c2)ccn1)c1ccc(O)cc1
inhibition at 10 µM [1]: 39.7% | viability at 10 µM [2]: 126% | inhibition at 10 µM [3]: 31.1%

Compound: COc1ccc(C(=O)NCCNc2cc(-c3cn(-c4ccccc4)nc3-c3cccc(OC)c3)ccn2)cc1
inhibition at 10 µM [1]: 12.3% | viability at 10 µM [2]: 116% | inhibition at 10 µM [3]: 59.6%

Compound: CC(=N)NCCCC[C@H](N)C(=O)O [L-NIL]
inhibition at 40 µM [5]: 31.5%

Compound: COc1cccc(-c2nn(-c3ccccc3)cc2-c2ccnc(NCCNC(=O)c3cccc(C(F)(F)F)c3)c2)c1
inhibition at 10 µM [1]: 19.1% | viability at 10 µM [2]: 125% | inhibition at 10 µM [3]: 58.1%

Compound: O=C(NCCNc1cc(-c2cn(-c3ccccc3)nc2-c2cccc(O)c2)ccn1)c1cccc(C(F)(F)F)c1
inhibition at 10 µM [1]: 18.6% | viability at 10 µM [2]: 135% | inhibition at 10 µM [3]: 12.2%

Compound: COc1cccc(-c2nn(-c3ccccc3)cc2-c2ccnc(NCCCNC(=O)c3ccccc3)c2)c1
inhibition at 10 µM [1]: 18.7% | viability at 10 µM [2]: 118% | inhibition at 10 µM [3]: 6.1%

Compound: COc1cccc(-c2nn(-c3ccccc3)cc2-c2ccnc(NCCCNC(=O)Nc3cccc(C(F)(F)F)c3)c2)c1
inhibition at 10 µM [1]: 31.3% | viability at 10 µM [2]: 124%

Compound: O=C(NCCNc1cc(-c2cn(-c3ccccc3)nc2-c2cccc(O)c2)ccn1)c1ccccc1
inhibition at 10 µM [1]: 12.2% | viability at 10 µM [2]: 105% | inhibition at 10 µM [3]: 20.9%

Compound: O=C(NCCCNc1cc(-c2cn(-c3ccccc3)nc2-c2cccc(O)c2)ccn1)c1ccccc1
inhibition at 10 µM [1]: 2.1% | viability at 10 µM [2]: 145% | inhibition at 10 µM [3]: 12.6%

Compound: O=C(NCCCNc1cc(-c2cn(-c3ccccc3)nc2-c2cccc(O)c2)ccn1)c1cccc(C(F)(F)F)c1
viability at 10 µM [2]: 123% | inhibition at 10 µM [3]: 11.6%

Compound: CS(=O)(=O)Nc1ccc([N+](=O)[O-])cc1OC1CCCCC1 [NS-398]
inhibition at 0.01 µM [6]: 59.5%

IC50 [4]: 4.21 µM
Compound: COc1cccc(-c2nn(-c3ccccc3)cc2-c2ccnc(NCCCNC(=O)Nc3ccc(Cl)c(Cl)c3)c2)c1
inhibition at 10 µM [1]: 38.6% | viability at 10 µM [2]: 121% | inhibition [7]: Dose-dependent effect | inhibition at 10 µM [3]: 77.1%

Compound: O=C(NCCNc1cc(-c2cn(-c3ccccc3)nc2-c2cccc(O)c2)ccn1)c1ccc(O)cc1
inhibition at 10 µM [1]: 34.5% | viability at 10 µM [2]: 124% | inhibition at 10 µM [3]: -56.4%

Compound: COc1cccc(-c2nn(-c3ccccc3)cc2-c2ccnc(NCCNC(=O)Nc3ccccc3)c2)c1
inhibition at 10 µM [1]: 12.2% | viability at 10 µM [2]: 143% | inhibition at 10 µM [3]: 53.9%

Compound: COc1cccc(-c2nn(-c3ccccc3)cc2-c2ccnc(NCCNC(=O)c3ccccc3)c2)c1
inhibition at 10 µM [1]: 12.8% | viability at 10 µM [2]: 132% | inhibition at 10 µM [3]: 36.2%

IC50 [4]: 5.62 µM
Compound: COc1cccc(-c2nn(-c3ccccc3)cc2-c2ccnc(NCCCNC(=O)c3cccc(C(F)(F)F)c3)c2)c1
inhibition at 10 µM [1]: 28.8% | viability at 10 µM [2]: 115% | inhibition at 10 µM [3]: 73.8%

Compound: O=C(NCCNc1cc(-c2cn(-c3ccccc3)nc2-c2cccc(O)c2)ccn1)c1ccc(F)cc1
inhibition at 10 µM [1]: 20.4% | viability at 10 µM [2]: 127% | inhibition at 10 µM [3]: -1.9%

Compound: COc1cccc(-c2nn(-c3ccccc3)cc2-c2ccnc(NCCNC(=O)c3ccc(F)cc3)c2)c1
inhibition at 10 µM [1]: 15.4% | viability at 10 µM [2]: 136% | inhibition at 10 µM [3]: 47.9%

IC50 [4]: 5.11 µM
Compound: COc1cccc(-c2nn(-c3ccccc3)cc2-c2ccnc(NCCNC(=O)Nc3cccc(C(F)(F)F)c3)c2)c1
inhibition at 10 µM [1]: 26.1% | viability at 10 µM [2]: 165% | inhibition at 10 µM [3]: 69.9%

Compound: COc1cccc(-c2nn(-c3ccccc3)cc2-c2ccnc(NCCCNC(=O)c3ccc(F)cc3)c2)c1
inhibition at 10 µM [1]: 18.6% | viability at 10 µM [2]: 133% | inhibition at 10 µM [3]: 28.9%

IC50 [4]: 7.06 µM
Compound: O=C(NCCCNc1cc(-c2cn(-c3ccccc3)nc2-c2cccc(O)c2)ccn1)c1ccc(F)cc1
inhibition at 10 µM [1]: 32.6% | viability at 10 µM [2]: 120% | inhibition at 10 µM [3]: 63.1%

IC50 [4]: 2.94 µM
Compound: COc1ccc(C(=O)NCCCNc2cc(-c3cn(-c4ccccc4)nc3-c3cccc(OC)c3)ccn2)cc1
inhibition at 10 µM [1]: 48.8% | viability at 10 µM [2]: 112% | inhibition [7]: Dose-dependent effect | inhibition at 10 µM [3]: 75.4% | inhibition [8]: Dose-dependent effect
